Source: patent publication US8906925B2, “Pyrido[4,3-B]indoles containing rigid moieties” (Medivation Technologies, Inc., priority 2008, dated 2014)
Read-outs that look alike come from different tables or passages of the source.

How the values were obtained:
[1] = target: human dopamine D2L receptor (Homo sapiens, UniProt P14416); assay: Dopamine D2L radioligand binding ([3H]Spiperone); conditions: compound at 1 μM
Excerpt: Non-specific binding was estimated in the presence of […] Haloperidol. Receptor proteins were filtered and washed, the filters were then counted to determine [^3H]Spiperone specifically bound. […] Biochemical assay results are presented as the percent inhibition of specific binding in Table 9.

[2] = target: T1, human recombinant serotonin (5-Hydroxytryptamine) 5-HT2C receptor (Homo sapiens, UniProt P28335); assay: Serotonin 5-HT2C radioligand binding ([3H]Mesulergine); conditions: compound at 1 μM; read-out: Inhibition of ligand binding, Serotonin 5-HT2C (percent inhibition of specific binding)
T1 construct: expressed in transfected cells; host or cells: Chinese hamster ovary (CHO-K1) cells
T1 sequence (P28335 33-458): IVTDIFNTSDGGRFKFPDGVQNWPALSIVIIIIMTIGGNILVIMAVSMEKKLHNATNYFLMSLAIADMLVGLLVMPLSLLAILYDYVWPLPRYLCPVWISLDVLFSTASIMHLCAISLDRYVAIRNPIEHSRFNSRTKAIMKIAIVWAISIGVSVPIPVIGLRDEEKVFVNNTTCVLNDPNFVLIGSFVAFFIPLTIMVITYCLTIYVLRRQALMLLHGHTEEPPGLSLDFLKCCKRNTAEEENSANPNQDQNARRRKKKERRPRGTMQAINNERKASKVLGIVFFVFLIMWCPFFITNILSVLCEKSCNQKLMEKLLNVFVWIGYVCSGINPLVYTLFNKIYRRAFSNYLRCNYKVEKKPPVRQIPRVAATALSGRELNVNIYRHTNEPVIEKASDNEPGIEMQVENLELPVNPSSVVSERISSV
Summary of the method: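 Compounds tested at 1 μM or lower (1% DMSO vehicle) for displacement of 1 nM [3H]Mesulergine over 60 min at 25° C. Specific binding determined by filtration counting, with 1 μM Mianserin defining non-specific binding; values are percent inhibition.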

[3] = target: T2, human recombinant histamine H2 receptor (Homo sapiens, UniProt P25021); assay: Histamine H2 radioligand binding ([125I]Aminopotentidine); conditions: read-out: Histamine Binding (1 μM) H2, percent inhibition of specific binding, 1 μM
T2 construct: expressed in transfected cells; host or cells: Chinese hamster ovary (CHO) K1 cells
T2 sequence (P25021 whole entry): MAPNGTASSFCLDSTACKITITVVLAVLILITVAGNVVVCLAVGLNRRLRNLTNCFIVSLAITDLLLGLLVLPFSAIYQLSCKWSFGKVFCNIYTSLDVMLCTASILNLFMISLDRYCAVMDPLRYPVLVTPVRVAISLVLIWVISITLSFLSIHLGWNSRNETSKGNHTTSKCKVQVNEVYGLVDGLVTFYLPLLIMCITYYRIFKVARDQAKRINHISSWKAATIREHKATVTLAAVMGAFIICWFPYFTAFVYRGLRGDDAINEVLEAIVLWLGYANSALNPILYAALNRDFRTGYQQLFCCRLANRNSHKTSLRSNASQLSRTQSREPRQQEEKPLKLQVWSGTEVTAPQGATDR
Summary of the method: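 CHO-K1 cells expressing human recombinant H2 receptor, 50 mM phosphate buffer pH 7.4; compounds incubated with 0.1 nM [125I]aminopotentidine for 120 min at 25 °C. Nonspecific binding defined with 3 μM tiotidine; specifically bound radioligand counted after filtration and washing.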

[4] = target: human recombinant serotonin (5-Hydroxytryptamine) 5-HT7 receptor (Homo sapiens, UniProt P34969); assay: Serotonin 5-HT7 radioligand binding ([3H]LSD); conditions: compound at 1 μM; read-out: Inhibition of ligand binding, Serotonin 5-HT7 (percent inhibition of specific binding)
Chain of human recombinant serotonin (5-Hydroxytryptamine) 5-HT7 receptor (P34969 whole entry): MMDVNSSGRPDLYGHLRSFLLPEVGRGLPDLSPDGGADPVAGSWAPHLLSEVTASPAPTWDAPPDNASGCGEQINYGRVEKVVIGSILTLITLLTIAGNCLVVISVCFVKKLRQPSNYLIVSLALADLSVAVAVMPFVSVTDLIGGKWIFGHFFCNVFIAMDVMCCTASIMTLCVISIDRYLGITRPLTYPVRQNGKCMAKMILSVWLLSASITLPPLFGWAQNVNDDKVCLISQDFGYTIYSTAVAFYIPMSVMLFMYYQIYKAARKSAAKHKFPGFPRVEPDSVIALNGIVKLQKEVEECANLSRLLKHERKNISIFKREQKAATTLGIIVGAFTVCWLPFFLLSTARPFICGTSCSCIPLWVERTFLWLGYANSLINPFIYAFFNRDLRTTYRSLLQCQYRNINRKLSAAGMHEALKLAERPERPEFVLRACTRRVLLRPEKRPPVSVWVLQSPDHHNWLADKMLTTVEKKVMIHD
Excerpt: Receptor proteins were filtered and washed, the filters were then counted to determine [^3H]LSD specifically bound.

[5] = target: T3, human recombinant serotonin (5-Hydroxytryptamine) 5-HT6 receptor (Homo sapiens, UniProt P50406); assay: Serotonin 5-HT6 radioligand binding ([3H]LSD); conditions: compound at 1 μM; read-out: Inhibition of ligand binding, Serotonin 5-HT6 (percent inhibition of specific binding)
T3 construct: expressed in transfected cells; host or cells: human HeLa cells
T3 sequence (P50406 whole entry): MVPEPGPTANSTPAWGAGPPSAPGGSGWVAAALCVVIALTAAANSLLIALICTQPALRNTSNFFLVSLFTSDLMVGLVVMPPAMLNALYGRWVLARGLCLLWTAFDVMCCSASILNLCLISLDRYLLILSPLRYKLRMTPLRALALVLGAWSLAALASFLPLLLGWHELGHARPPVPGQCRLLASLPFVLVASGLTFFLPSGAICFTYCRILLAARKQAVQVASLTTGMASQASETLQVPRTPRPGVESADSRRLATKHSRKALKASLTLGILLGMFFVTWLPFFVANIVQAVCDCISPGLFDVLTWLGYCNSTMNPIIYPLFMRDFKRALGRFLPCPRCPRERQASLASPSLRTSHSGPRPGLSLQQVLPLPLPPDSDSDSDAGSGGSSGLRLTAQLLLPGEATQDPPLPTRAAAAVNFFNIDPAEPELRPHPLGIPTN
Method: Compounds of the invention were incubated with 1.5 nM [3H]Lysergic acid diethylamide (LSD) for 120 min. at 37° C. […] Receptor proteins were filtered and washed, the filters were then counted to determine [3H]LSD specifically bound. Compounds were screened at 1 μM or lower, using 1% DMSO as vehicle. Biochemical assay results are presented as the percent inhibition of specific binding in Table 10.

[6] = target: T4, human recombinant serotonin (5-Hydroxytryptamine) 5-HT2A receptor (Homo sapiens, UniProt P28223); assay: Serotonin 5-HT2A radioligand binding ([3H]Ketanserin); conditions: read-out: Inhibition of ligand binding, Serotonin 5-HT2A (percent inhibition of specific binding), compound at 1 μM
T4 construct: expressed in transfected cells; host or cells: Chinese hamster ovary (CHO-K1) cells
T4 sequence (P28223 whole entry): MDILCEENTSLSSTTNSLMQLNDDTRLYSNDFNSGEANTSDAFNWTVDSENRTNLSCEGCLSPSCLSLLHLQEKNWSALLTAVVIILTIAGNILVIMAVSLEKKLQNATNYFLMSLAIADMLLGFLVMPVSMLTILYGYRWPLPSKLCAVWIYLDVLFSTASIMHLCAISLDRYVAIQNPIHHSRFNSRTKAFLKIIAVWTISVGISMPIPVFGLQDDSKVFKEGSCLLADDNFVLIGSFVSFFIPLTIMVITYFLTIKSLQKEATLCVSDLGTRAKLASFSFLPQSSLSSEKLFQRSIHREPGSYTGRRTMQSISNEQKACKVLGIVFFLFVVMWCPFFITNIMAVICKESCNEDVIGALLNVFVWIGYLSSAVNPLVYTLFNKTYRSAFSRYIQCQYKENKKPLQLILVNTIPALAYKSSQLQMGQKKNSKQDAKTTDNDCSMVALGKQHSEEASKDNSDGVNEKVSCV
Method: Compounds of the invention were incubated with 0.5 nM [^3H]Ketanserin for 60 min. at 25° C. Non-specific binding was estimated in the presence of 1 μM Mianserin. Receptor proteins were filtered and washed, the filters were then counted to determine [^3H]Ketanserin specifically bound.

[7] = target: histamine receptor H1 (Homo sapiens, UniProt P35367); assay: Histamine H1 radioligand binding ([3H]Pyrilamine); conditions: read-out: Histamine Binding (1 μM) H1, percent inhibition of specific binding, 1 μM
Chain of histamine receptor H1 (P35367 whole entry): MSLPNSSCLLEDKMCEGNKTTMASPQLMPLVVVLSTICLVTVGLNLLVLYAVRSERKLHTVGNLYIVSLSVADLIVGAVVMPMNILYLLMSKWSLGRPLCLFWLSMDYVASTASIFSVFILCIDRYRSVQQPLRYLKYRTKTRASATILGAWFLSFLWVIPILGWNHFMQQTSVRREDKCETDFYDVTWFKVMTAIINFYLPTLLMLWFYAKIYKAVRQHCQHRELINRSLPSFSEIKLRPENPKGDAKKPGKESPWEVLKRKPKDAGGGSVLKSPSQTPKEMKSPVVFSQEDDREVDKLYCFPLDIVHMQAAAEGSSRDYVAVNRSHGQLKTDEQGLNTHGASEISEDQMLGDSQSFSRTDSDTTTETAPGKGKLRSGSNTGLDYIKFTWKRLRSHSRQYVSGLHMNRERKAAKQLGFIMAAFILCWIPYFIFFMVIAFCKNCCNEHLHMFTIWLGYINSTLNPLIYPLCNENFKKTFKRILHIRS
Summary of the method: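 Values are percent inhibition of specific [3H]pyrilamine (1.2 nM) binding with compounds at ≤1 μM (1% DMSO vehicle); 180 min incubation at 25 °C, pH 7.4 Tris buffer, on CHO-expressed human H1 receptor; 1 μM pyrilamine defined nonspecific binding, bound ligand counted after filtration.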

[8] = target: T5, human recombinant serotonin 5-HT1B receptor (Homo sapiens, UniProt P28222); assay: 5-HT1B radioligand binding competition assay ([3H]5-CT, CHO-K1 membranes); conditions: 5 μM, in duplicate, average
T5 construct: expressed in transfected cells; host or cells: CHO-K1 cell line, membrane extracts
T5 sequence (P28222 whole entry): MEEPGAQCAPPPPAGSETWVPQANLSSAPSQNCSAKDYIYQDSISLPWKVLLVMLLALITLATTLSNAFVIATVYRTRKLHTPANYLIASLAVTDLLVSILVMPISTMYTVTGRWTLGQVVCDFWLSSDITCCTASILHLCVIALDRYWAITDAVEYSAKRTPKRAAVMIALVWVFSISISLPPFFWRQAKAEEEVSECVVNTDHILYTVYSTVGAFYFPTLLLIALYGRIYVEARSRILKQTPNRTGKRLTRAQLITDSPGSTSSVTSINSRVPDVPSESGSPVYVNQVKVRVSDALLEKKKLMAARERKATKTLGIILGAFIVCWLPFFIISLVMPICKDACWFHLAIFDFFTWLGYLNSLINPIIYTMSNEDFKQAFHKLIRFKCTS
Method: To determine the binding activity at the human recombinant serotonin 5-HT1B receptor of compounds of the invention, CHO-K1 cell line expressing the human 5-HT1B recombinant receptor was amplified to prepare membranes used for the radioligand binding assay throughout the study. Radioligand binding competition on 5-HT1B was performed by adding successively in the wells of a 96 well plate (Master Block, Greiner, 786201). […] The plate was incubated 60 min at 25° C. in a water bath and then filtered over GF/B filters (Perkin Elmer, 6005177, presoaked in 0.5% PE1 for 2 h at room temperature) with a Filtration unit (Perkin Elmer). The filters were washed 3× with 0.5 mL of ice-cold washing buffer (50 mM Tris pH 7.4). 50 μL Microscint 20 (Packard) was added and the plate was incubated 15 min on an orbital shaker and then counted with a TopCount™ for 1 min/well.
The reference value thus obtained for the test was compared to a historical value obtained from the same receptor and used to validate the experimental session. […] For replicate determinations, the maximum variability tolerated in the test was of +/−20% around the average of the replicates.
Compounds were tested for binding activity in the radioligand binding competition assay on human 5-HT1B receptor, at one concentration […], in duplicate. Dose-response data from test compounds were analyzed with XLfit (IDBS) software using nonlinear regression applied to a sigmoidal dose-response model.
Dose-response data was analyzed with XLfit (IDBS) software using non-linear regression applied to a sigmoidal dose-response model.

[9] = percent inhibition of specific binding, read-out: Inhibition of ligand binding, Dopamine D2L
[10] = […] [3H]Spiperone, read-out: Inhibition of ligand binding, Dopamine D2L (percent inhibition of specific binding)

Chain of human dopamine D2L receptor (P14416 whole entry): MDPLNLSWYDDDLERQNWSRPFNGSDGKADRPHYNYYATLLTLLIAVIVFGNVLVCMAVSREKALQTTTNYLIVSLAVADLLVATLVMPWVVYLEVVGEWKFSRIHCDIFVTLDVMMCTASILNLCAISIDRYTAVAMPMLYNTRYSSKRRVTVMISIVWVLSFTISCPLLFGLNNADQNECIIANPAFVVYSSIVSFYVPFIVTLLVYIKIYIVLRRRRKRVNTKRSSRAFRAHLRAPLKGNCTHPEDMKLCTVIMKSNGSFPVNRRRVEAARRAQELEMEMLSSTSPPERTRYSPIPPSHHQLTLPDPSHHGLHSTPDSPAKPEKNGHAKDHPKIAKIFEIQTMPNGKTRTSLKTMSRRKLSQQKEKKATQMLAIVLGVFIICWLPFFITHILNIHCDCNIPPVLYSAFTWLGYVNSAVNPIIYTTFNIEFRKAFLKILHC

Structure (SMILES) | inhibition at 1 µM [1, 9] | inhibition at 1 µM [2] | inhibition at 1 µM [3] | inhibition at 1 µM [4] | inhibition at 1 µM [5] | inhibition at 1 µM [6] | inhibition at 1 µM [7] | inhibition at 1 µM [1, 10] | 5-HT1B (5 μM) % Binding relative to bound radioligand [8]
COc1ccc2c(c1)c1c(n2/C=C(/C)c2ccncc2)CCN(C)C1 [Compound 239, (Z)-8-methoxy-2-methyl-5-(2-(pyridin-4-yl)prop-1-enyl)-2,3,4,5-tetrahydro-1H-pyrido[4,3-b]indole] | 39% | 93% | 28% | 98% | 104% | 93% | 14% | – | –
C/C(=C\n1c2c(c3cc(Cl)ccc31)CN(C)CC2)c1cc(Cl)cc(Cl)c1 [Compound 215, (E)-8-chloro-5-(2-(3,5-dichlorophenyl)prop-1-enyl)-2-methyl-2,3,4,5-tetrahydro-1H-pyrido[4,3-b]indole] | 36% | 96% | 98% | 90% | 97% | 97% | 89% | – | –
COc1ccc2c(c1)c1c(n2CC(C)(O)c2ccncc2)CCN(C)C1 (stereo not drawn) [Compound 188, 1-(8-methoxy-2-methyl-3,4-dihydro-1H-pyrido[4,3-b]indol-5(2H)-yl)-2-(pyridin-4-yl)propan-2-ol] | -5% | 66% | 13% | 45% | 9% | 50% | 8% | – | –
C/C(=C/n1c2c(c3cc(Cl)ccc31)CN(C)CC2)c1cccc(F)c1 [Compound 233, (Z)-8-chloro-5-(2-(3-fluorophenyl)prop-1-enyl)-2-methyl-2,3,4,5-tetrahydro-1H-pyrido[4,3-b]indole] | 48% | 101% | 99% | 95% | 102% | 97% | 85% | – | –
C/C(=C\n1c2c(c3ccc(Cl)cc31)CN(C)CC2)c1ccc(F)cc1 [Compound 228, (E)-7-chloro-5-(2-(4-fluorophenyl)prop-1-enyl)-2-methyl-2,3,4,5-tetrahydro-1H-pyrido[4,3-b]indole] | 98% | 97% | 102% | 97% | 106% | 101% | 66% | – | –
C/C(=C/n1c2c(c3cc(C)ccc31)CN(C)CC2)c1ccc(Cl)c(Cl)c1 [Compound 247, (Z)-5-(2-(3,4-dichlorophenyl)prop-1-enyl)-2,8-dimethyl-2,3,4,5-tetrahydro-1H-pyrido[4,3-b]indole] | 28% | 100% | 99% | 101% | 103% | 101% | 75% | – | –
C/C(=C\n1c2c(c3c(Cl)c(Cl)ccc31)CN(C)CC2)c1ccc(F)cc1 [Compound 232, (E)-8,9-dichloro-5-(2-(4-fluorophenyl)prop-1-enyl)-2-methyl-2,3,4,5-tetrahydro-1H-pyrido[4,3-b]indole] | 91% | 98% | 95% | 84% | 103% | 99% | 71% | – | –
C/C(=C/n1c2c(c3cc(C)ccc31)CN(C)CC2)c1ccccc1Cl [Compound 242, (Z)-5-(2-(2-chlorophenyl)prop-1-enyl)-2,8-dimethyl-2,3,4,5-tetrahydro-1H-pyrido[4,3-b]indole] | 55% | 99% | 97% | 100% | 107% | 98% | 88% | – | –
COc1ccc(C#Cn2c3c(c4cc(C)ccc42)CN(C)CC3)cc1F [Compound No. 485, 5-((3-fluoro-4-methoxyphenyl)ethynyl)-2,8-dimethyl-2,3,4,5-tetrahydro-1H-pyrido[4,3-b]indole] | – | 102% | 97% | 77% | 89% | 96% | -6% | 14% | –
C/C=C(\Cn1c2c(c3cc(C)ccc31)CN(C)CC2)c1ccncc1 [Compound No. 359, (Z)-2,8-dimethyl-5-(2-(pyridin-4-yl)but-2-enyl)-2,3,4,5-tetrahydro-1H-pyrido[4,3-b]indole] | – | – | – | – | – | – | 38% | 27% | 68%
CN1CCc2c(c3c(Cl)c(Cl)ccc3n2CC(C)(O)c2ccncc2)C1 (stereo not drawn) [Compound 190, 1-(8,9-dichloro-2-methyl-3,4-dihydro-1H-pyrido[4,3-b]indol-5(2H)-yl)-2-(pyridin-4-yl)propan-2-ol] | -15% | 52% | 9% | 47% | 31% | 71% | -11% | – | –
C/C(=C\n1c2c(c3cc(C)ccc31)CN(C)CC2)c1ccc(O)cc1 [Compound 235, (E)-4-(1-(2,8-dimethyl-3,4-dihydro-1H-pyrido[4,3-b]indol-5(2H)-yl)prop-1-en-2-yl)phenol] | 80% | 101% | 96% | 96% | 99% | 98% | 73% | – | –
C/C(=C\n1c2c(c3cc(C)ccc31)CN(C)CC2)c1cc(F)c(F)cc1Cl [Compound 221, (E)-5-(2-(2-chloro-4,5-difluorophenyl)prop-1-enyl)-2,8-dimethyl-2,3,4,5-tetrahydro-1H-pyrido[4,3-b]indole] | 34% | 99% | 98% | 93% | 95% | 97% | 90% | – | –
